Where two headings read alike, the source gives them in different places.
Columns and labels:
[1] = Stability of analytes in rat plasma QC samples (auto-sampler, long-term, freeze-thaw); assay type: in vitro ADME; conditions: n = 6; for Stability, Auto-Sampler for 24 h, Mean: 4 °C; for Stability, Freeze–Thaw Cycles, Mean: three cycles −80 °C to room temperature
Description: Stock solutions were separately prepared by dissolving the four accurately weighed standard reference compounds in a mixture of 50% acetonitrile. Then, the four stock solutions were mixed and diluted with 50% acetonitrile to prepare a final mixed standard solution containing 650.00 ng/mL of timosaponin BII, 620.00 ng/mL of anemarsaponin BIII, 485.00 ng/mL of timosaponin AIII, 530.00 ng/mL of timosaponin E1. A series of working solutions were freshly prepared by diluting mixed standard solution with 50% acetonitrile to the appropriate concentration. The internal standard solution of ginsenoside Re was prepared to the concentration of 920 ng/mL in 50% acetonitrile. For the validation of the method, three concentrations of standard solution containing timosaponin BII (5.20, 52.00 and 520 ng/mL), anemarsaponin BIII (4.96, 49.60 and 496.00 ng/mL), timosaponin AIII (3.88, 38.8 and 388 ng/mL), timosaponin E1 (4.24, 42.40 and 424.00 ng/mL) were used for preparing the QC plasma samples. The stability experiments were measured by analyzing replicates (n = 6) of three QC samples during the sample storing and processing procedures. For all stability experiments, freshly prepared stability testing QC samples were evaluated by using freshly prepared standard curve for the measurement. The post-preparation stability was tested by determined of the extracted QC samples stored in the auto-sampler (4 °C) for 24 h. The freeze and thaw stability were determined after three freeze-thaw cycles (−80 °C to room temperature). Long-term stability in rat plasma stored at −80 °C was studied for a period of one month.

[2] = Pharmacokinetic study of four steroidal saponins in rat plasma after oral administration of A. asphodeloides fractions (UPLC-MS/MS); assay type: in vivo, Sprague-Dawley rats; conditions: for AUC(0-t) / half-life / Tmax / Cmax: male, Sprague-Dawley; for AUC(0-t) / half-life / Tmax / Cmax / T1/2: rat plasma, single oral dose, n = 6, mean ± S.D.; for AUC(0-t): read-out: AUC0–t; for half-life: read-out: T1/2 (converted); for Tmax: read-out: Tmax; for Cmax: read-out: Cmax; for shape of plasma concentration-time curve: after oral administration
Description: The dried A. asphodeloides were chopped into slices before using. The A. asphodeloides was immersed in water (1:10, w/v) and extracted twice by refluxing for 2 h. After filtration, the supernatant was condensed to a certain volume under reduced pressure, and 95% ethanol was added to the water extract filtrates until the concentration of ethanol was 80%. The precipitate was filtered as the macromolecular fraction (MF), the ethanol supernatant was concentrated under reduced pressure to a certain volume under vacuum and then purified by gradient elution with water, 40% ethanol and 70% ethanol from an AB-8 MARO porous resin column and then the water-eluted fraction was combined with the 40% ethanol-eluted fraction as the small molecule fraction (SF) and the 70% ethanol eluted fraction was the A. asphodeloides saponins extract (ASE). All of the residues were lyophilized and the resulting dry powder was stored at 4 °C before usage. The contents of four steroidal saponins in ASE dry powder were measured quantitatively by the external standard method using the same chromatography conditions as described above. The contents of timosaponin BII, anemarsaponin BIII, timosaponin AIII and timosaponin E1 in ASE were 429.12, 89.81, 59.13 and 41.25 mg/g, respectively.
Frozen plasma samples were unfrozen at room temperature and treated as follows: to each 200 µL plasma sample, 20 µL of IS (920 ng/mL ginsenoside Re) working solution and 600 µL of acetonitrile were added. After vortexing for 2 min and centrifugation at 13,000 rpm at 4 °C for 10 min the supernatant was transferred into a new tube and evaporated to dryness in a rotary evaporator at 39 °C and the residue was reconstituted in 100 µL of 0.1% formic acid–acetonitrile (50:50, v/v), vortexed for 2 min and centrifuged at 13,000 rpm at 4 °C for 10 min. The supernatant was transferred to an autosampler vial and an aliquot of 2 μL was injected onto the UPLC-MS/MS system for analysis.
Male Sprague-Dawley rats (250–280 g) were obtained from the Shanghai Slac Laboratory Animal Co., Ltd. (Shanghai, China). All animals were kept in an environmentally controlled breeding room (temperature: 20–25 °C, humidity: 55%–65%) for 1 week before the experiments started. Animal welfare and experimental procedures were strictly in accordance with the ethical norms of the Nanjing University of Chinese Medicine. All rats were fasted for 12 h with free access to water prior to the experiments, twenty-four rats were divided into four groups and then were given a single dose of ASE, ASE-SF, AS-MF, AS-M-SF. A 40 mg/mL ASE (the amount of MF, SF added to group AS-MF, ASE-SF, AS-M-SF were based on the proportion extracted from A. asphodeloides) aqueous solution in each group was administered orally at a dose of 400 mg/kg, which contained 171.61, 35.92, 23.62, 16.53 mg/kg of timosaponin BII, anemarsaponin BIII, timosaponin AIII, timosaponin E1, respectively.
About 400 μL blood samples were collected from venipuncture before intragastric gavage and at 0.083, 0.25, 0.5, 1, 1.5, 2, 4, 6, 8, 10, 12, 24 h after a single oral administration. The blood samples were immediately transferred to heparinized tubes and centrifuged at 3000 rpm for 10 min, and the supernatant was transferred into 2.0 mL Eppendorf tubes and stored at −80 °C prior to analysis. Blank plasma was obtained from the rat without oral administration and was used to investigate the assay development and validation.
To calculate the pharmacokinetic parameters of analytes in different group, concentrations–time dada were analyzed by DAS 3.2 software (Mathematical Pharmacology Professional Committee of China, Shanghai, China, 2011). Data were measured as the mean ± standard deviation (S.D.) with triplicate measurements. The identification of significances between different groups was executed with Student’s t-test. A p value < 0.05 was considered statistically significant.

[3] = high concentration (388.00–520.00 ng/mL)
[4] = low concentration (3.88–5.20 ng/mL)
[5] = middle concentration (38.80–52.00 ng/mL)
[6] = rat, plasma, po, 400 mg/kg, Group ASE (ASE 400 mg/kg)
[7] = rat, plasma, po, 400 mg/kg, Group ASE-MF (ASE 400 mg/kg plus macromolecular fraction)
[8] = rat, plasma, po, 400 mg/kg, Group ASE-MF
[9] = rat, plasma, po, 400 mg/kg, Group ASE-SF (ASE 400 mg/kg plus small molecule fraction)
[10] = rat, plasma, po, 400 mg/kg, Group ASE-SF
[11] = rat, plasma, po, 400 mg/kg, Group ASE-SF-MF

Compound | Stability, Auto-Sampler for 24 h, Mean [1, 3] | Stability, at −80 °C for 1 Month, Mean [1, 3] | Stability, Freeze–Thaw Cycles, Mean [1, 3] | Stability, Auto-Sampler for 24 h, Mean [1, 4] | Stability, at −80 °C for 1 Month, Mean [1, 4] | Stability, Freeze–Thaw Cycles, Mean [1, 4] | Stability, Auto-Sampler for 24 h, Mean [1, 5] | Stability, at −80 °C for 1 Month, Mean [1, 5] | Stability, Freeze–Thaw Cycles, Mean [1, 5] | AUC(0-t) [2, 6] | Cmax [2, 6] | half-life [2, 6] | Tmax [2, 6] | Cmax [2, 7] | AUC(0-t) [2, 8] | half-life [2, 8] | Tmax [2, 8] | Cmax [2, 9] | half-life [2, 10] | Tmax [2, 10] | also measured
C[C@@H](CC[C@@]1(O)O[C@H]2C[C@H]3[C@@H]4CC[C@@H]5C[C@@H](O[C@@H]6O[C@H](CO)[C@H](O)[C@H](O)[C@H]6O[C@@H]6O[C@H](CO)[C@@H](O)[C@H](O)[C@H]6O)CC[C@]5(C)[C@H]4CC[C@]3(C)[C@H]2[C@@H]1C)CO[C@@H]1O[C@H](CO)[C@@H](O)[C@H](O)[C@H]1O [Timosaponin BII, timosaponin BII] | 88.3% | 95.4% | 91.4% | 95.3% | 94.7% | 98.0% | 98.1% | 98.2% | 95.5% | 2040 ± 146 ng·h/mL | 271 ± 22.5 ng/mL | 3.21 ± 1.17 h | 3.75 ± 1.78 h | 287 ± 11.9 ng/mL | 1980 ± 104 ng·h/mL | 3.34 ± 1.19 h | 3.41 ± 1.43 h | 415 ± 41.8 ng/mL | 3.63 ± 1.28 h | 5 ± 1.67 h | AUC(0-t) ([2]; 400 mg/kg, Group ASE-SF-MF): 3310 ± 575 ng·h/mL; half-life ([2]; 400 mg/kg, Group ASE-SF-MF): 5.18 ± 1.88 h; Tmax ([2]; 400 mg/kg, Group ASE-SF-MF): 3.17 ± 2.21 h; AUC(0-t) [2, 10]: 3090 ± 628 ng·h/mL; Cmax ([2]; Group ASE-SF-MF (ASE 400 mg/kg plus small molecule and macromolecular fraction)): 400 ± 39.6 ng/mL; T1/2 ([2]; Group ASE-SF): no obvious difference; shape of plasma concentration-time curve ([2]; rat): double peak
C[C@H]1CC[C@@]2(OC1)O[C@H]1C[C@H]3[C@@H]4CC[C@@H]5C[C@@H](O[C@@H]6O[C@H](CO)[C@H](O)[C@H](O)[C@H]6O[C@@H]6O[C@H](CO)[C@@H](O)[C@H](O)[C@H]6O)CC[C@]5(C)[C@H]4CC[C@]3(C)[C@H]1[C@@H]2C [Timosaponin AIII, timosaponin AIII] | 96.4% | 99.0% | 102.8% | 100.9% | 100.4% | 102.2% | 97.0% | 101.7% | 96.2% | 644 ± 59 ng·h/mL | 65.2 ± 4.16 ng/mL | 5.31 ± 3.03 h | 5.66 ± 0.81 h | 63.6 ± 3.16 ng/mL | 688 ± 46.3 ng·h/mL | 6.95 ± 6.23 h | 4.33 ± 0.81 h | 69.8 ± 2.86 ng/mL | 8.2 ± 2.74 h | 5.33 ± 1.03 h | Cmax ([2]; rat, plasma, po, 400 mg/kg, Group ASE-SF-MF (ASE 400 mg/kg plus small molecule and macromolecular fraction)): 74 ± 6.18 ng/mL; AUC(0-t) [2, 11]: 890 ± 57.2 ng·h/mL; half-life [2, 11]: 8.94 ± 1.24 h; Tmax [2, 11]: 5.66 ± 0.81 h; T1/2 ([2]; Group ASE-SF): significantly increased; shape of plasma concentration-time curve ([2]; rat): single peak
